One may read the IC50 as the concentration that inhibits the measured activity by half.

The first assay concerns the target SARS-CoV-2 3CLpro (Severe acute respiratory syndrome coronavirus 2, UniProt P0DTD1). Kind of assay: biochemical. Particulars: IC50 (μM), SARS-CoV-2 3CLPro assay.
With `COc1cccc(NCC(=O)N[C@@H](CC(C)C)C(=O)NN(CCC(N)=O)C(=O)[C@H](F)Cl)c1` (single isomer, unassigned) [Example 83-A], the IC50 came out at 0.9 µM.

Consider `COc1cccc(NCC(=O)N[C@@H](CC(C)C)C(=O)NN(CCC(N)=O)C(=O)[C@@H](F)Cl)c1` (single isomer, unassigned) [Example 83-B], for which half-maximal inhibition (IC50) was put at 0.06 µM. On to `CC(C)C[C@H](NC(=O)/C=C/c1ccccc1)C(=O)NN(CCC(N)=O)C(=O)[C@H](F)Cl` (single isomer, unassigned) [Example 86-A], for which the IC50 was 0.75 µM. The compound `CC(C)C[C@H](NC(=O)/C=C/c1ccccc1)C(=O)NN(CCC(N)=O)C(=O)[C@@H](F)Cl` (single isomer, unassigned) [Example 86-B] showed an IC50 of 0.023 µM.

The compound `NC(=O)CCN(NC(=O)[C@H](CC1CCCCC1)NC(=O)OCc1ccccc1)C(=O)C(F)Cl` (stereo partly drawn) [Example 16, Benzyl N-[(1S)-2-[2-(3-amino-3-oxo-propyl)-2-(2-chloro-2-fluoro-acetyl)hydrazino]-1-(cyclohexylmethyl)-2-axo-ethyl]carbamate] came in with an IC50 of 0.009 µM. With `CC(C)C[C@H](NC(=O)OCc1ccccc1)C(=O)NN(CC1CCCNC1=O)C(=O)CCl` (stereo partly drawn) [Example 20, Benzyl N-[(1S)-1-[[(2-chloroacetyl)-[(2-oxo-3-piperidyl)methyl]amino]carbamoyl]-3-methyl-butyl]carbamate], the IC50 was found to be 0.0046 µM. In turn, `COc1cccc2[nH]c(C(=O)N[C@@H](CC(C)C)C(=O)NN(CCC(N)=O)C(=O)CCl)cc12` [Example 27, 4-Methoxy-N-[(1S)-1-[[(3-amino-3-oxo-propyl)-(2-chloroacetyl)amino]carbamoyl]-3-methyl-butyl]-1H-indole-2-carboxamide] yielded an IC50 of 0.006 µM. For `Cc1cc(C(=O)N[C@@H](CC(C)C)C(=O)NN(CCC(N)=O)C(=O)CCl)no1` [Example 29], the IC50 worked out at 0.034 µM. `COc1cccc2[nH]c(C(=O)N[C@@H](CC(C)C)C(=O)NN(CCC(N)=O)C(=O)CF)cc12` [Example 30, N-[(1S)-1-[[(3-Amino-3-axo-propyl)-(2-fluoroacetyl)amino]carbamoyl]-3-methyl-butyl]-4-methoxy-1H-indole-2-carboxamide] registered a half-inhibitory concentration (IC50) of 0.16 µM. In turn, `CC(C)C[C@H](NC(=O)c1cc2ccccc2[nH]1)C(=O)NN(CCC(N)=O)C(=O)CF` [Example 31, N-[(1S)-1-[[(3-Amino-3-axo-propyl)-(2-fluoroacetyl)amino]carbamoyl]-3-methyl-butyl]-1H-indole-2-carboxamide] showed an IC50 of 0.65 µM. Regarding `COc1cccc2[nH]c(C(=O)N[C@@H](CC3CCCCC3)C(=O)NN(CCC(N)=O)C(=O)CCl)cc12` [Example 32, N-[(1S)-2-[2-(3-Amino-3-axo-propyl)-2-(2-chloroacetyl)hydrazino]-1-(cyclohexylmethyl)-2-axo-ethyl]-4-methoxy-1H-indole-2-carboxamide], 0.002 µM corresponded to half-maximal inhibition (IC50).

The compound `CC(C)C[C@H](NC(=O)c1cc2ccccc2[nH]1)C(=O)NN(CC1CCNC1=O)C(=O)CF` (stereo partly drawn) [Example 38, N-[(1S)-1-[[(2-fluoroacetyl)-[(2-oxo-pyrrolidin-3-yl)methyl]amino]carbamoyl]-3-methyl-butyl]-1H-indole-2-carboxamide] came in with an IC50 of 0.29 µM.

Still in this assay, the particulars now being: read-out: IC50 (μM), SARS-CoV-2 3CLPro assay.
Turning to `NC(=O)CCN(NC(=O)CNC(=O)OCc1ccccc1)C(=O)CCl` [Example 1, Benzyl N-[2-[2-(3-amino-3-oxo-propyl)-2-(2-chloroacetyl)hydrazino]-2-axo-ethyl]carbamate], the IC50 stood at 4.59 µM. As for `CC(C)C[C@H](NC(=O)OCc1ccccc1)C(=O)NN(CCC(N)=O)C(=O)CCl` [Example 2, Benzyl N-[(1S)-1-[[(3-amino-3-oxo-propyl)-(2-chloroacetyl)amino]carbamoyl]-3-methyl-butyl]carbamate], the IC50 was found to be 0.017 µM. On the same count and under the same terms, the value for `CC(C)C[C@H](NC(=O)OCc1ccccc1)C(=O)NN(CCC(N)=O)C(=O)C(Cl)c1ccccc1` (stereo partly drawn) [Example 3, Benzyl N-[(1S)-1-[[(3-amino-3-oxo-propyl)-(2-chloro-2-phenyl-acetyl)amino]carbamoyl]-3-methyl-butyl]carbamat] was 0.89 µM; that for `CC(C)C[C@H](NC(=O)OCc1ccccc1)C(=O)NN(CCC(N)=O)C(=O)C(C)Cl` (stereo partly drawn) [Example 4, Benzyl N-[(1S)-1-[[(3-amino-3-oxo-propyl)-(2-chloropropanoyl)amino]carbamoyl]-3-methyl-butyl]carbamate] was 0.33 µM; that for `CCC(Cl)C(=O)N(CCC(N)=O)NC(=O)[C@H](CC(C)C)NC(=O)OCc1ccccc1` (stereo partly drawn) [Example 5, Benzyl N-[(1S)-1-[[(3-amino-3-oxo-propyl)-(2-chlorobutanoyl)amino]carbamoyl]-3-methyl-butyl]carbamate] was 1.76 µM. `CC(C)C[C@H](NC(=O)OCc1ccccc1)C(=O)NN(CCC(N)=O)C(=O)CBr` [Example 7, Benzyl N-[(1S)-1-[[(3-amino-3-oxo-propyl)-(2-bromoacetyl)amino]carbamoyl]-3-methyl-butyl]carbamate]: the IC50 was found to be 0.54 µM. Regarding `NC(=O)CCN(NC(=O)[C@H](CC1CCCCC1)NC(=O)OCc1ccccc1)C(=O)CCl` [Example 8, Benzyl N-[(1S)-2-[2-(3-amino-3-oxo-propyl)-2-(2-chloroacetyl)hydrazino]-1-(cyclohexylmethyl)-2-axo-ethyl]carbamate], the concentration for half-maximal inhibition (IC50) worked out at 0.008 µM. `NC(=O)CCN(NC(=O)[C@H](CC1CCCC1)NC(=O)OCc1ccccc1)C(=O)CCl` [Example 10, Benzyl N-[(1S)-2-[2-(3-amino-3-oxo-propyl)-2-(2-chloroacetyl)hydrazino]-1-(cyclopentylmethyl)-2-axo-ethyl]carbamate]: the IC50 amounted to 0.006 µM. As to `NC(=O)CCN(NC(=O)[C@H](CC1CC1)NC(=O)OCc1ccccc1)C(=O)CCl` [Example 11, Benzyl N-[(1S)-2-[2-(3-amino-3-oxo-propyl)-2-(2-chloroacetyl)hydrazino]-1-(cyclopropylmethyl)-2-axo-ethyl]carbamate], the IC50 was 0.023 µM.

Turning to `NC(=O)CCN(NC(=O)[C@H](CC1CCCCC1)NC(=O)OCc1ccccc1)C(=O)CF` [Example 15, Benzyl N-[(1S)-2-[2-(3-amino-3-oxo-propyl)-2-(2-fluoroacetyl)hydrazino]-1-(cyclohexylmethyl)-2-axo-ethyl]carbamate], the IC50 stood at 1.2 µM.

On to `CC(C)C[C@H](NC(=O)OCc1ccccc1)C(=O)NN(CCC(N)=O)C(=O)C(F)Cl` (stereo partly drawn) [Example 17, Benzyl N-[(1S)-1-[[(3-amino-3-oxo-propyl)-(2-chloro-2-fluoro-acetyl)amino]carbamoyl]-3-methyl-butyl]carbamate], for which the IC50 worked out at 0.09 µM. Turning to `CC(C)C[C@H](NC(=O)OCc1ccccc1)C(=O)NN(CC1CCNC1=O)C(=O)CCl` (stereo partly drawn) [Example 18, Benzyl N-[(1S)-1-[[(2-chloroacetyl)-[(2-oxo-pyrrolidin-3-yl)methyl]amino]carbamoyl]-3-methyl-butyl]carbamate], the IC50 worked out at 0.017 µM. On the same count and under the same terms, the value for `CCCN(NC(=O)[C@H](CC(C)C)NC(=O)OCc1ccccc1)C(=O)CCl` [Example 21, Benzyl N-[(1S)-1-[[(2-chloroacetyl)-propyl-amino]carbamoyl]-3-methyl-butyl]carbamate] was 0.39 µM; that for `CC(C)C[C@H](NC(=O)OCc1ccccc1)C(=O)NN(Cc1cc[nH]n1)C(=O)CCl` [Example 23, Benzyl N-[(1S)-1-[[(2-chloroacetyl)-(1H-pyrazol-3-ylmethyl)amino]carbamoyl]-3-methyl-butyl]carbamate] was 0.034 µM; that for `CC(C)C[C@H](NC(=O)OCc1ccccc1)C(=O)NN(Cc1c[nH]cn1)C(=O)CCl` [Example 24, Benzyl N-[(1S)-1-[[(2-chloroacetyl)-(1H-imidazol-4-ylmethyl)amino]carbamoyl]-3-methyl-butyl]carbamate] was 0.087 µM.

`CC(C)C[C@H](NC(=O)OC(C)(C)C)C(=O)NN(CCC(N)=O)C(=O)CCl` [Example 26, tert-Butyl N-[(1S)-1-[[(3-amino-3-oxo-propyl)-(2-chloroacetyl)amino]carbamoyl]-3-methyl-butyl]carbamate]: the half-maximal inhibitory concentration (IC50) was 0.67 µM.

As for `NC(=O)CCN(NC(=O)[C@H](CC1CCCCC1)NC(=O)/C=C/c1ccc(Cl)cc1F)C(=O)CCl` [Example 33, 3-[(2-Chloroacetyl)-[[(2S)-2-[[(E)-3-(4-chloro-2-fluoro-phenyl)prop-2-enoyl]amino]-3-cyclohexyl-propanoyl]amino]amino]propanamide], the half-maximal inhibitory concentration (IC50) was found to be 0.002 µM. With `CC(C)C[C@H](NC(=O)/C=C/c1ccc(Cl)cc1F)C(=O)NN(CCC(N)=O)C(=O)CCl` [Example 34, 3-[(2-Chloroacetyl)-[[(2S)-2-[[(E)-3-(4-chloro-2-fluoro-phenyl)prop-2-enoyl]amino]-4-methyl-pentanoyl]amino]amino]propanamide], the half-maximal inhibitory concentration (IC50) is 0.005 µM. Turning to `NC(=O)CCN(NC(=O)[C@H](CC1CCCCC1)NC(=O)c1cc2ccccc2[nH]1)C(=O)CCl` [Example 35, N-[(1S)-2-[2-(3-Amino-3-axo-propyl)-2-(2-chloroacetyl)hydrazino]-1-(cyclohexylmethyl)-2-axo-ethyl]-1H-indole-2-carboxamide], the half-maximal inhibitory concentration (IC50) is 0.002 µM. For the compound `NC(=O)CCN(NC(=O)[C@H](CC1CCCCC1)NC(=O)c1cc2ccccc2[nH]1)C(=O)CF` [Example 36, N-[(1S)-2-[2-(3-Amino-3-axo-propyl)-2-(2-fluoroacetyl)hydrazino]-1-(cyclohexylmethyl)-2-axo-ethyl]-1H-indole-2-carboxamide], the IC50 came out at 0.14 µM. Same read-out and setting: the value for `COc1cccc2[nH]c(C(=O)N[C@@H](CC3CCCCC3)C(=O)NN(CCC(N)=O)C(=O)CF)cc12` [Example 37, N-[(1S)-2-[2-(3-Amino-3-axo-propyl)-2-(2-fluoroacetyl)hydrazino]-1-(cyclohexylmethyl)-2-axo-ethyl]-4-methoxy-1H-indole-2-carboxamide] was 0.038 µM; that for `CN(C(=O)c1cc2ccccc2[nH]1)[C@@H](CC1CCCCC1)C(=O)NN(CCC(N)=O)C(=O)CCl` [Example 39, N-[(1S)-2-[2-(3-Amino-3-axo-propyl)-2-(2-chloroacetyl)hydrazino]-1-(cyclohexylmethyl)-2-axo-ethyl]-N-methyl-1H-indole-2-carboxamide] was 0.002 µM.

(Values after patent US12060333B2 (Hoffmann-La Roche Inc., priority 2021, dated 2024).)
